Source: ChEMBL document CHEMBL1125580, “Synthesis and in vivo photodynamic activity of some bacteriochlorin derivatives against bladder tumors in rodents” (1991)

The molecules below were run on Rattus norvegicus (assay: Compound was evaluated in vivo for the effective dose of irradiation that causes antitumor activity). Details: light or radiation study.
Type: functional
Molecule CCC1=C(CC)c2cc3[nH]c(cc4[nH]c(cc5nc(cc1n2)C(=O)C5(CC)CC)c(CC)c4CC)C1(CC)C3=CCC(C(=O)OC)=C1C(=O)OC.CCC1=C(CC)c2cc3[nH]c(cc4[nH]c(cc5nc(cc1n2)C1=CCC(C(=O)OC)=C(C(=O)OC)C15CC)c(CC)c4CC)C(=O)C3(CC)CC (stereo not drawn) has an ED50 of 1 mg/kg.
With C=CC1=C(CC)/C2=C/c3[nH]c(c(CC)c3CC)/C=C3N=C(/C=c4\[nH]/c(c(CC)c4CC)=C\C1N2)C(CC)(CC)C\3=O.C=CC1=C(CC)C2/C=c3\[nH]/c(c(CC)c3CC)=C\C3=NC(=C\c4[nH]c(c(CC)c4CC)/C=C/1N2)/C(=O)C3(CC)CC (mixture of isomers) the ED50 was 2.5 mg/kg.
For CCC1=C(CC)c2cc3[nH]c(cc4[nH]c(cc5nc(cc1n2)C(=O)C5(CC)CC)c(CC)c4CC)C1(CC)C3=CCC(C#N)(C#N)C1(C#N)C#N.CCC1=C(CC)c2cc3[nH]c(cc4[nH]c(cc5nc(cc1n2)C1=CCC(C#N)(C#N)C(C#N)(C#N)C15CC)c(CC)c4CC)C(=O)C3(CC)CC (mixture of isomers), the ED50 was 2.5 mg/kg.
